Test results: patent US20030022821A1, “Bioactive peptides” (priority 1998, published 2003)
In brackets after ≈: the same amount, converted by molar mass. Where two headings read alike, the source gives them in different places. Ends that are not written are not given here. Peptide text beside a SMILES is read from it. * marks the point of attachment. Acm = CC(=O)NC*

Columns and labels:
Assay type in all cases: cell-based
[1] = system: Escherichia coli ATCC 25922
Procedure: (§1) The bacterial strains used were: Escherichia coli ATCC 25922 and Staphylococcus aureus ATCC 25923. All strains were stored at −70° C. The bacteria were grown in 2% Bacto Peptone water (Difco 1807-17-4). All tests were performed with bacteria in mid-logarithmic growth phase. Determination of the minimum inhibitory concentration (MIC) of the peptides for bacterial strains were performed in 1% Bacto Peptone water. A standard microdilution technique with an inoculum of 2×10^6 CFU/ml was used. All assays were performed in triplets. Since the peptides are positively charged and therefore could adhere to the plastic wells, we controlled the actual concentration of the peptides in the solution by HPLC. There was no difference between the concentration of the peptides before or after adding the solution to the plastic wells.

[2] = system: Staphylococcus aureus ATCC 25923
Procedure: as §1

[3] = system: human red blood cells; experiment: Hemolytic assay
Procedure: The hemolytic activities of the peptides were determined using fresh human red blood cells. 8 ml blood was taken from a healthy person. 4 ml blood was transferred to a polycarbonate tube containing heparin to a final concentration of 10 U/ml, and the remaining 4 ml blood was transferred to a glass tube containing EDTA with final concentration of 15% EDTA. The erythrocytes were isolated from heparin-treated blood by centrifugation in 1500 rpm for 10 min and washed three times with phosphate-buffered saline (PBS) to remove plasma and buffy coat. The cell pellet was resuspended in PBS to make the final volume of 4 ml. The peptide was diluted to a concentration of 2 mg/ml and 0.1 mg/ml. The peptide was further diluted to the concentrations as stated in Table 15. For each tube PBS was added first, then RBCs and peptide solutions. The hematocrit in the blood treated with EDTA was determined after 30 min with Sysmex K-1000, and the resuspended RBCs were diluted into 10% hematocrit. RBCs in PBS (1%) with and without peptides (Table 15) were incubated in a shaker at […] for 1 hour and then centrifuged at 4000 rpm for 5 min. The supernatant were carefully transferred to new polycarbonate tubes and the absorbance of the supernatant was measured at 540 nm. Baseline hemolysis was hemoglobin released in the presence of PBS, and 100% hemolysis was hemoglobin released in the presence of 0.1% Triton X-100.

Row | MIC E. coli ([1]; ATCC 25922) | MIC S. aureus ([2]; ATCC 25923) | Molecule | MIC E. coli ([1]; Table 4) | MIC S. aureus ([2]; Table 4, unit assumed) | also measured
1 | >1000 mg/L | >1000 mg/L | CSCC[C@H](NC(=O)[C@H](CCC(=O)O)NC(=O)[C@H](Cc1c[nH]c2ccccc12)NC(=O)[C@H](CCC(N)=O)NC(=O)[C@H](Cc1c[nH]c2ccccc12)NC(=O)[C@H](CCCNC(=N)N)NC(=O)[C@H](CC(C)C)NC(=O)[C@H](CSCNC(C)=O)NC(=O)[C@H](CCCCN)NC(=O)[C@@H](N)CCC(=O)O)C(=O)N[C@@H](CCCNC(=N)N)C(=O)N[C@@H](CCCCN)C(=O)N[C@@H](Cc1ccc(O)cc1)C(=O)NCC(=O)NCC(=O)O [LFM W8 Y13] (H-EKC(Acm)LRWQWEMRKYGG-OH; N-terminus and C-terminus assumed) | – | – | –
2 | – | – | CC[C@H](C)[C@H](NC(=O)[C@H](CCCCN)NC(=O)[C@H](Cc1c[nH]c2ccccc12)NC(=O)[C@H](CCC(N)=O)NC(=O)[C@H](Cc1c[nH]c2ccccc12)NC(=O)[C@H](CCC(N)=O)NC(=O)[C@H](CCCNC(=N)N)NC(=O)[C@H](CSCNC(C)=O)NC(=O)[C@H](CCCCN)NC(=O)[C@@H](N)CO)C(=O)N[C@@H](CCCNC(=N)N)C(=O)N[C@@H](CCCNC(=N)N)C(=O)N[C@H](C(=O)N[C@@H](CC(N)=O)C(=O)N1CCC[C@H]1C(=O)O)[C@@H](C)O [LFPW8] (H-SKC(Acm)RQWQWKIRRTNP-OH; N-terminus assumed) | 500 mg/L (≈ 243 µM) | > 1000 mg/L | –
3 | – | – | H-FKARRWAWRMKKLGA-OH [LFB A3, 7] | – | – | EC 50 [3]: >1000 mg/L; EC50 [3]: > 525 µM
4 | – | – | LFH Pmc: human lactoferricin with Pmc attached to the only available tryptophan | – | – | MIC E. coli ([1]; Table 5): 25 mg/L; MIC S. aureus ([2]; Table 5, unit assumed): 50 mg/L
5 | – | – | RRWQWRMKKLGA-OH [LFB 20-31] | – | – | MIC E. coli ATCC 25922 ([1]; ATCC 25922): 100 mg/L; MIC E. coli ATCC 25922 ([1]; Table 1, value in brackets): 62 µM; MIC E. coli ([1]; Table 11): 100 mg/L; MIC S. aureus ATCC 25923 ([2]; ATCC 25923): 200 mg/L; MIC S. aureus ATCC 25923 ([2]; Table 1, value in brackets): 124 µM; MIC S. aureus ([2]; Table 11): 200 mg/L
6 | 5 mg/L | 2.5 mg/L | RRWYRWWR-NH2 [LFM 17-24 R1,2, 8 W3, 7Y4NH2] | – | – | –
7 | – | – | SKCRQWQSKIRRTNP [Native LFP, porcine region corresponding to LFB 17-31] | > 1000 mg/L | > 1000 mg/L | –
8 | – | – | TKCFQWQRNMRKVRG [Native LFH] | > 1000 mg/L | > 1000 mg/L | –
9 | – | – | YRMWRWAWRWR-NH2 [LFB 17-27 A7 M3 R2, 11 W4, 10 Y1 NH2] | – | – | EC50 [3]: 291 ± 91 µM; EC 50 ([3]; Table 13, toxicity (hemolysis)): 510 ± 160 mg/L
10 | 10 mg/L | 5 mg/L | YRWARWWRR-NH2 [LFM 17-25 A4R2,8, 9W3, 7Y1NH2] | – | – | –
